≈ marks a conversion by molar mass, not a printed value.

Assay [1] in a line: DPPH free radical scavenging assay. Conditions: DPPH 0.004% w/v in methanol, absorbance 515 nm, 16 min, three replicates. On the procedure:
The antioxidant activity of the extract was determined at the Regional Center for Mycology and Biotechnology (RCMB) at Al-Azhar University by the DPPH free radical scavenging assay in triplicate, and average values were considered.
Freshly prepared (0.004% w/v) methanol solution of 2,2-diphenyl-1-picrylhydrazyl (DPPH) radical was prepared and stored at 10 °C in the dark. A methanol solution of the test compound was prepared. About 40 uL aliquot of the methanol solution was added to 3 mL of DPPH solution. Absorbance measurements were recorded immediately with a UV-visible spectrophotometer (Milton Roy, Spectronic 1201). The decrease in absorbance at 515 nm was determined continuously, with data being recorded at 1 min intervals until the absorbance stabilized (16 min). The absorbance of the DPPH radical without antioxidant (control) and the reference compound ascorbic acid were also measured. All the determinations were performed in three replicates and averaged. The percentage inhibition (PI) of the DPPH radical was calculated according to the formula:PI = [{(AC − AT)/AC} × 100] where AC = absorbance of the control at t = 0 min and AT = absorbance of the sample + DPPH at t = 16 min. A 50% inhibitory concentration (IC50) or the concentration required for 50% DPPH radical scavenging activity was calculated.
On the technique in general: The DPPH test is a chemical assay of radical scavenging.

In another assay the test system is Aspergillus fumigatus. In words: Antifungal screening, diffusion agar technique. The class given is cell-based. Particulars: RCMB002008; Aspergillus fumigatus (RCMB 002008); well 6.0 mm, 100 μL tested; three replicates; ketoconazole 100 μg/mL. On the procedure:
(§1) The complexes were tested in vitro using a diffusion agar technique; well diameter: 6.0 mm (100 μL tested) on four fungi (Aspergillus fumigatus (RCMB 002008), Candida albicans (RCMB 005003 (1) ATCC 10231), Cryptococcus neoformas (RCMB 0049001) and Syncephalastrum racemosum (RCMB 016001 (1)). The positive control was a fungicide (ketoconazole, 100 μg/mL) as well as four bacteria, two Gram-positive strains (Staphylococcus aureus (ATCC 25923) and Bacillus subtilis (RCMB 015 (1) NRRL B-543)), and two Gram-negative strains (Escherichia coli (ATCC 25922) and Proteus Vulgaris (RCMB 004 (1) ATCC 13315)). The positive control was Streptococcus (gentamycin, 4 μg/mL). The inhibitory activity of a compound against an organism is indicated by a clear area around the disc.

Another assay concerns Cryptococcus neoformas. In words: Antifungal screening, diffusion agar technique. The class given is cell-based. Conditions: RCMB0049001; Cryptococcus neoformas (RCMB 0049001); well 6.0 mm, 100 μL tested; three replicates; ketoconazole 100 μg/mL. On the procedure:
as §1

Another assay deals with Candida albicans. The assay can be described thus: Antifungal screening, diffusion agar technique. The class given is cell-based. Conditions: ATCC10231; Candida albicans (ATCC 10231); well 6.0 mm, 100 μL tested; three replicates; ketoconazole 100 μg/mL. On the procedure:
as §1

In assay [2] the test system is Syncephalastrum racemosum. In words: Antifungal screening, diffusion agar technique. The class given is cell-based. Particulars: RCMB016001; Syncephalastrum racemosum (RCMB 016001); well 6.0 mm, 100 μL tested; three replicates; ketoconazole 100 μg/mL. On the procedure:
as §1

The test system of assay [3] is A-549 cells (human lung cancer cell line). The assay can be described thus: Cytotoxicity against A-549 cells (crystal violet colorimetric viability, 72 h). Type of assay: cell-based. Conditions: A-549 human lung cancer cell line, 72 h exposure, average of three independent experiments. As to the method: Cancer is a type of malignant disease in which a group of cells appears to grow in an irregular pattern. The only way to treat this is through surgical intervention or chemotherapy, both of which have negative side effects. Although platinum-based complexes such as cis-platin have been used to treat cancer, it is not effective, so in vitro tests for complexes of manganese, cobalt, copper, chromium, and palladium were conducted against two cancer lines, respectively. A-549 and MRC-5 cells were used as test subjects for the cytotoxic activity of Schiff base and aminopyrimidyl complexes in the concentration range of […]. […] As the concentration of the complexes increased, cell viability decreased (Figure 10).
Figure 10 (a) A-549. The dose-response curves of the cytotoxicity of compounds (1–6). Cells were exposed to different concentrations of the compounds for 72 h. Cell viability was determined by a colorimetric method. (b) MRC-5cell lines. The dose-response curves of the cytotoxicity of compounds (1–6) Cells were exposed to different concentrations of the compounds for 72 h. Cell viability was determined by a colorimetric method.
A-549 cells (human Lung cancer cell line) were obtained from VACSERA Tissue Culture Unit.
It is composed of 0.5% (w/v) crystal violet and 50% methanol then made up to volume with ddH2O and filtered through a Whatmann No.1 filter paper. […]

For another assay, the system named is Escherichia coli. The assay can be described thus: Antibacterial screening, diffusion agar technique. Type of assay: cell-based. Particulars: Escherichia coli (ATCC 25922), Gram-negative; well 6.0 mm, 100 μL tested; three replicates; gentamycin 4 μg/mL. As to the method:
as §1

In another assay the test system is Proteus vulgaris. In words: Antibacterial screening, diffusion agar technique. Type of assay: cell-based. Particulars: Proteus vulgaris (ATCC 13315), Gram-negative; well 6.0 mm, 100 μL tested; three replicates; gentamycin 4 μg/mL. As to the method:
as §1

The next assay concerns Bacillus subtilis. The assay can be described thus: Antibacterial screening, diffusion agar technique. Type of assay: cell-based. Conditions: Bacillus subtilis (NRRL B-543), Gram-positive; well 6.0 mm, 100 μL tested; three replicates; gentamycin 4 μg/mL. On the procedure: as §1
The test system of a further assay is Staphylococcus aureus. In words: Antibacterial screening, diffusion agar technique. The class given is cell-based. Conditions: Staphylococcus aureus (ATCC 25923), Gram-positive; well 6.0 mm, 100 μL tested; three replicates; gentamycin 4 μg/mL. As to the method: as §1

Consider `O=C1O[C@H]([C@@H](O)CO)C(O)=C1O` [Ascorbic acid, reference compound], for which the “IC50 (antioxidant activity, DPPH radical scavenging)” value in assay [1] was 10210 ± 770 µg/mL (≈ 58 mM).
In the case of `CC(=O)N1CCN(c2ccc(OCC3COC(Cn4ccnc4)(c4ccc(Cl)cc4Cl)O3)cc2)CC1` (stereo not shown) [Ketoconazole, reference compound], the zone of inhibition (commonly the extent of the growth-free halo in a diffusion test) at 100 µg/mL in the assay with Aspergillus fumigatus stood at 17.4 mm; in the assay with Cryptococcus neoformas, 24.9 mm; in the assay on Candida albicans it was 20.4 mm; in assay [2] it was 15.3 mm.
Consider `N.N.[Cl][Pt][Cl]` [cisplatin, reference compound], for which, in [3], the “IC50 Value” is reported as 7.11 µg/mL.
As for Gentamycin [reference compound], the “Mean Zone of Inhibition” value in the assay with Escherichia coli was 29.83 mm; with Proteus vulgaris, 25.20 mm; with Bacillus subtilis it was 25.93 mm; in the assay with Staphylococcus aureus, 24.33 mm.
